{
  "source": "patent US8080558B2",
  "about": "“4-(tetrazol-5-yl)-quinazoline derivatives as anti-cancer agent” (Natco Pharma Limited, priority 2007, dated 2011)",
  "tested_on": "A549 cells",
  "assay": "Matrigel invasion assay (modified Boyden chamber), A549 cells",
  "format": "cell-based",
  "conditions": "100 to 800 ng/ml",
  "method": "The in vitro invasiveness of H1299 or A549 cells in the presence of various concentrations of NRC compounds (as determined by MTT assay) was assessed using a modified Boyden chamber assay. Cells were treated with these compounds for 48 h. 1×10^6 cells were suspended in 600 μl of serum-free medium supplemented with 0.2% BSA and placed in the upper compartment of the transwell chambers (Corning Costar Fischer Scientific Cat #07-200-158, Pittsburgh Pa.) coated with Matrigel (0.7 mg/ml). The lower compartment of the chamber was filled with 200 μl of serum-medium and the cells were allowed to migrate for 24 h. After incubation, the cells were fixed and stained with Hema-3 and quantified as previously described (Mohanam, et al. 1993). The migrated cells were quantified as percent invasion.\nMatrigel invasion was performed as described in materials and methods. […] Using H1299 cells similar retardation patterns of invasion was observed.",
  "data": [
    {"compound": "C#Cc1cccc(Nc2ncnc3cc(OCCOC)c(OCCOC)cc23)c1", "note": "[Erlotinib]", "values": [
      {"measurement": "invasiveness", "value": "decreased invasiveness in a dose dependent manner"}
    ]}
  ]
}
